Assay results taken from PubChem BioAssay AID328 (DTP/NCI, 2004).
Where “and” joins values, the source holds several entries; their conditions need not be identical. Identical values can stand only once. Inconclusive results and toxic doses are left out.

Test system: BDF1 mice, P388 leukemia ip, median survival T/C
Assay: NCI In Vivo Anticancer Drug Screen. Data for tumor model P388 Leukemia (intraperitoneal) in B6D2F1 (BDF1) mice
Conditions: endpoint: median survival time, higher = longer survival
In short: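 Transplantable tumour in mice; compound vs vehicle dosing; survival scored; ratio of treated to control reported.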

[1] = dose: 50.0 mg/kg/injection, schedule: Q01DX009 (ip), vehicle: saline with Tween-80
[2] = dose: 100.0 mg/kg/injection, schedule: Q01DX009 (ip), vehicle: saline with Tween-80
[3] = dose: 200.0 mg/kg/injection, schedule: Q01DX009 (ip), vehicle: saline with Tween-80
[4] = dose: 100.0 mg/kg/injection, schedule: Q04DX003 (ip), vehicle: saline with Tween-80
[5] = dose: 200.0 mg/kg/injection, schedule: Q04DX003 (ip), vehicle: saline with Tween-80
[6] = dose: 25.0 mg/kg/injection, schedule: Q01DX009 (ip), vehicle: saline with Tween-80
[7] = dose: 25.0 mg/kg/injection, schedule: Q04DX003 (ip), vehicle: saline with Tween-80
[8] = dose: 50.0 mg/kg/injection, schedule: Q01DX009 (ip), vehicle: saline
[9] = dose: 50.0 mg/kg/injection, schedule: Q04DX003 (ip), vehicle: saline
[10] = dose: 50.0 mg/kg/injection, schedule: Q04DX003 (ip), vehicle: saline with Tween-80
[11] = dose: 100.0 mg/kg/injection, schedule: Q04DX003 (ip), vehicle: Klucel (hydroxypropylcellulose) (HPC)
[12] = dose: 200.0 mg/kg/injection, schedule: Q04DX003 (ip), vehicle: Klucel (hydroxypropylcellulose) (HPC)
[13] = dose: 400.0 mg/kg/injection, schedule: Q04DX003 (ip), vehicle: Klucel (hydroxypropylcellulose) (HPC)

Cc1cc(N(CCOS(C)(=O)=O)CCOS(C)(=O)=O)ccc1C=Nc1ccc(-c2csc(Cc3ccccc3)n2)cc1
T/C (dose: 8.25 mg/kg/injection, schedule: Q01DX009 (ip), vehicle: Klucel (hydroxypropylcellulose) (HPC)): 100 % of control and 211 % of control
T/C (dose: 12.4 mg/kg/injection, schedule: Q01DX009 (ip), vehicle: Klucel (hydroxypropylcellulose) (HPC)): 225 % of control
T/C (dose: 12.5 mg/kg/injection, schedule: Q01DX009 (ip), vehicle: Klucel (hydroxypropylcellulose) (HPC)): 250 % of control
T/C (dose: 18.7 mg/kg/injection, schedule: Q01DX009 (ip), vehicle: Klucel (hydroxypropylcellulose) (HPC)): 155 % of control
T/C (dose: 18.75 mg/kg/injection, schedule: Q01DX009 (ip), vehicle: Klucel (hydroxypropylcellulose) (HPC)): 227 % of control and 178 % of control
T/C (dose: 28.13 mg/kg/injection, schedule: Q01DX009 (ip), vehicle: Klucel (hydroxypropylcellulose) (HPC)): 99 % of control

Oc1c(Cl)cc(Cl)cc1C1N=NC2=C(CCCC2)N1O (centres undefined)
T/C [1]: 106 % of control
T/C [2]: 88 % of control
T/C [3]: 93 % of control

CCOC(=O)c1cc2sccc2[nH]1
T/C [2]: 103 % of control
T/C [4]: 104 % of control
T/C [3]: 100 % of control
T/C [5]: 109 % of control
T/C (dose: 400.0 mg/kg/injection, schedule: Q01DX009 (ip), vehicle: saline with Tween-80): 115 % of control
T/C (dose: 400.0 mg/kg/injection, schedule: Q04DX003 (ip), vehicle: saline with Tween-80): 113 % of control

CN=C(N)c1ccc(N=C(N)c2ccc(N=C(N)c3ccc(NC(=O)Nc4ccc(NC(=O)Nc5ccc(C(N)=Nc6ccc(C(N)=Nc7ccc(C(N)=NC)cc7)cc6)cc5)cc4)cc3)cc2)cc1
T/C (dose: 3.0 mg/kg/injection, schedule: Q01DX009 (ip), vehicle: saline with Tween-80): 162 % of control
T/C (dose: 5.0 mg/kg/injection, schedule: Q01DX009 (ip), vehicle: saline with Tween-80): 183 % of control
T/C (dose: 8.0 mg/kg/injection, schedule: Q01DX009 (ip), vehicle: saline with Tween-80): 230 % of control and 162 % of control
T/C (dose: 12.0 mg/kg/injection, schedule: Q01DX009 (ip), vehicle: saline with Tween-80): 150 % of control
T/C (dose: 12.0 mg/kg/injection, schedule: Q04DX003 (ip), vehicle: saline with Tween-80): 250 % of control
T/C (dose: 18.0 mg/kg/injection, schedule: Q01DX009 (ip), vehicle: saline with Tween-80): 92 % of control
T/C (dose: 18.0 mg/kg/injection, schedule: Q04DX003 (ip), vehicle: saline with Tween-80): 213 % of control and 216 % of control
T/C [6]: 109 % of control
T/C [7]: 250 % of control and 204 % of control
T/C (dose: 37.0 mg/kg/injection, schedule: Q04DX003 (ip), vehicle: saline with Tween-80): 170 % of control

COc1cc2c(cc1OC)C(C)=NCC2
T/C (dose: 3.0 mg/kg/injection, schedule: Q01DX001 (ip), vehicle: saline): 104 % of control
T/C (dose: 6.0 mg/kg/injection, schedule: Q01DX001 (ip), vehicle: saline): 104 % of control
T/C (dose: 12.0 mg/kg/injection, schedule: Q01DX001 (ip), vehicle: saline): 108 % of control
T/C (dose: 12.0 mg/kg/injection, schedule: Q01DX009 (ip), vehicle: saline): 100 % of control
T/C (dose: 12.0 mg/kg/injection, schedule: Q04DX003 (ip), vehicle: saline): 95 % of control
T/C (dose: 25.0 mg/kg/injection, schedule: Q01DX001 (ip), vehicle: saline): 104 % of control
T/C (dose: 25.0 mg/kg/injection, schedule: Q01DX009 (ip), vehicle: saline): 100 % of control
T/C (dose: 25.0 mg/kg/injection, schedule: Q04DX003 (ip), vehicle: saline): 104 % of control
T/C (dose: 50.0 mg/kg/injection, schedule: Q01DX001 (ip), vehicle: saline): 108 % of control
T/C [8]: 95 % of control
T/C [9]: 100 % of control

CCCCCCCCCCCCOB(OCCCCCCCCCCCC)OCCCCCCCCCCCC
T/C [6]: 100 % of control
T/C [7]: 91 % of control
T/C [1]: 108 % of control
T/C [10]: 95 % of control
T/C [2]: 100 % of control
T/C [4]: 116 % of control

COc1ccc(C(CCl)(CCl)c2ccc(OC)cc2)cc1
T/C (dose: 100.0 mg/kg/injection, schedule: Q01DX009 (ip), vehicle: gum acacia): 116 % of control
T/C (dose: 100.0 mg/kg/injection, schedule: Q04DX003 (ip), vehicle: gum acacia): 87 % of control
T/C (dose: 200.0 mg/kg/injection, schedule: Q01DX009 (ip), vehicle: gum acacia): 112 % of control
T/C (dose: 200.0 mg/kg/injection, schedule: Q04DX003 (ip), vehicle: gum acacia): 104 % of control
T/C (dose: 400.0 mg/kg/injection, schedule: Q01DX009 (ip), vehicle: gum acacia): 104 % of control
T/C (dose: 400.0 mg/kg/injection, schedule: Q04DX003 (ip), vehicle: gum acacia): 95 % of control

C=CCCCCCCCCC(=O)NC[n+]1cccc(O)c1
T/C [6]: 110 % of control
T/C [1]: 100 % of control
T/C [2]: 100 % of control

Cc1cccc(NC(=O)c2ccccc2C(=O)O)c1C
T/C [11]: 91 % of control
T/C [12]: 91 % of control
T/C [13]: 100 % of control

O=COCC(O)COC=O
T/C [9]: 103 % of control
T/C (dose: 100.0 mg/kg/injection, schedule: Q04DX003 (ip), vehicle: saline): 112 % of control
T/C (dose: 200.0 mg/kg/injection, schedule: Q04DX003 (ip), vehicle: saline): 112 % of control

COc1cc(C(=O)C=C(C(F)(F)F)C(F)(F)F)cc(OC)c1OC
T/C [10]: 120 % of control
T/C [4]: 120 % of control
T/C [5]: 100 % of control

Oc1ccc(Cl)cc1Br
T/C [6]: 110 % of control
T/C [1]: 115 % of control
T/C [2]: 110 % of control

COc1ccc(C(C(N)=O)N2CCCCC2)cc1 (centres undefined)
T/C (dose: 100.0 mg/kg/injection, schedule: Q01DX009 (ip), vehicle: other): 115 % of control
T/C [11]: 100 % of control
T/C (dose: 200.0 mg/kg/injection, schedule: Q01DX009 (ip), vehicle: other): 105 % of control
T/C [12]: 90 % of control
T/C (dose: 400.0 mg/kg/injection, schedule: Q01DX009 (ip), vehicle: other): 100 % of control
T/C [13]: 104 % of control

CC1=C2CC(C)(C)/C=C\C(=O)/C(C)=C\C3=C[C@H](C)C[C@]3(O2)C1=O
T/C (dose: 0.5 mg/kg/injection, schedule: Q01DX010 (ip), vehicle: carboxymethylcellulose (CMC)): 100 % of control
T/C (dose: 1.0 mg/kg/injection, schedule: Q01DX010 (ip), vehicle: carboxymethylcellulose (CMC)): 100 % of control
T/C (dose: 2.0 mg/kg/injection, schedule: Q01DX010 (ip), vehicle: carboxymethylcellulose (CMC)): 100 % of control
T/C (dose: 4.0 mg/kg/injection, schedule: Q01DX010 (ip), vehicle: carboxymethylcellulose (CMC)): 104 % of control
T/C (dose: 8.0 mg/kg/injection, schedule: Q01DX010 (ip), vehicle: carboxymethylcellulose (CMC)): 95 % of control

CC1=NN(c2ccc(S(=O)(=O)O)cc2)C(=O)/C1=C/c1ccc(Cl)cc1
T/C [8]: 92 % of control
T/C (dose: 100.0 mg/kg/injection, schedule: Q01DX009 (ip), vehicle: saline): 90 % of control

CC[N+](CC)(CC)CCCC[N+](CC)(CC)CC
T/C (dose: 12.5 mg/kg/injection, schedule: Q01DX009 (ip), vehicle: water): 97 % of control
T/C (dose: 25.0 mg/kg/injection, schedule: Q01DX009 (ip), vehicle: water): 95 % of control
T/C (dose: 25.0 mg/kg/injection, schedule: Q04DX003 (ip), vehicle: water): 109 % of control
T/C (dose: 50.0 mg/kg/injection, schedule: Q01DX009 (ip), vehicle: water): 100 % of control
T/C (dose: 50.0 mg/kg/injection, schedule: Q04DX003 (ip), vehicle: water): 104 % of control

Cc1ccc2c(c1)CN(Cc1ccccc1)CO2
T/C [11]: 104 % of control
T/C [12]: 100 % of control
T/C [13]: 100 % of control
